The values that follow come from patent publication US9458133B2, “Isoquinolines as potassium ion channel inhibitors” (BRISTOL-MYERS SQUIBB COMPANY, priority 2013, dated 2016).

SMILES strings stand for the structures.

The target in the experiment is T1, human Kv 1.5 (Homo sapiens, UniProt P22460).
T1 construct: expressed in transfected cells; host or cells: mouse L-929 fibroblasts stably expressing human Kv1.5
T1 sequence (P22460 whole entry): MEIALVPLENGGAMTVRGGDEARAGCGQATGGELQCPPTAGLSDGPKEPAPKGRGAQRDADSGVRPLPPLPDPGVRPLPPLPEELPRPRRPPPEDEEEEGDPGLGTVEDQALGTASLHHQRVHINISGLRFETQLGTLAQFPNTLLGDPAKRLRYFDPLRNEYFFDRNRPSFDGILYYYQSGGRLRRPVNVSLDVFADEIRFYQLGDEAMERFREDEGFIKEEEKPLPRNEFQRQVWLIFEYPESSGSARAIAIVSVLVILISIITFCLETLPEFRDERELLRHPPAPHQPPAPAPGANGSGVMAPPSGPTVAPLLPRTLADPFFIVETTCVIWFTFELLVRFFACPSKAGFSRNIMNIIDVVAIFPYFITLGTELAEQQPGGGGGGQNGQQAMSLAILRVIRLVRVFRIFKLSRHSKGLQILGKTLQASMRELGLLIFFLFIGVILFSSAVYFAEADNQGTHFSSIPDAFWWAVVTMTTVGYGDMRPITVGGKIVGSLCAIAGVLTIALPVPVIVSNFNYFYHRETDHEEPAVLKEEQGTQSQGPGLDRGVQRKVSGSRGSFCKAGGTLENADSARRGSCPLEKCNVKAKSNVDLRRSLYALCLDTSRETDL
Kind of experiment: Block of IKur current in patch clamped L-929 cells stably expressing human Kv1.5. The following applies: L929, 0.3 μM; patch clamped mammalian L-929 cells expressing human Kv1.5 (IKur); read-out: KV1_5% Inh L929 @0.3 μM. Format: cell-based. An excerpt: Synders, D. J. et al., “A rapidly activating and slowly inactivating potassium channel cloned from human heart: functional analysis after stable mammalian cell culture expression”, J. Gen. Physiol., 101:513-543 (1993). […]
A general note: Patch clamp records ionic current or voltage across a cell membrane.
As for `Nc1ccc(-c2c(Cl)nc(NCc3ccccn3)c3c(-c4ccccc4)cccc23)cc1` [Example 68, 4-(4-aminophenyl)-3-chloro-8-phenyl-N-(pyridin-2-ylmethyl)isoquinolin-1-amine], the inhibition at 0.3 µM came to 98.3%.

With `CC(=O)Nc1ccc(-c2cc3cccc(-c4ccccc4)c3c(NCc3ccccn3)n2)cn1` [Example 64, N-(5-(8-phenyl-1-(pyridin-2-ylmethylamino)isoquinolin-3-yl)pyridin-2-yl)acetamide], the inhibition at 0.3 µM turned out to be 57.5%.

In the case of `COc1ccc(-c2cc3cccc(-c4ccccc4)c3c(NCc3ccccn3)n2)cn1` [Example 67, 3-(6-methoxypyridin-3-yl)-8-phenyl-N-(pyridin-2-ylmethyl)isoquinolin-1-amine], the inhibition at 0.3 µM is 96.9%.

On to `NC(=O)Nc1cccc(-c2cc3cccc(-c4ccccc4)c3c(NCc3ccccn3)n2)c1` [Example 38, 1-(3-(8-phenyl-1-(pyridin-2-ylmethylamino)isoquinolin-3-yl)phenyl)urea], for which the inhibition at 0.3 µM amounted to 90.8%.

Consider `Cc1ccccc1CNc1nc(-c2cncc(S(N)(=O)=O)c2)cc2cccc(-c3ccccc3)c12` [Example 45, 5-(1-(2-methylbenzylamino)-8-phenylisoquinolin-3-yl)pyridine-3-sulfonamide], for which the inhibition at 0.3 µM was found to be 78.5%.

As to `NS(=O)(=O)c1ccc(-c2cc3cccc(-c4ccccc4)c3c(NCc3ccccn3)n2)cc1` [Example 33, 4-(8-phenyl-1-(pyridin-2-ylmethylamino)isoquinolin-3-yl)benzenesulfonamide], the inhibition at 0.3 µM is 73.4%.

Turning to `NS(=O)(=O)c1cccc(-c2c(Cl)nc(NCc3ccccn3)c3c(-c4ccccc4)cccc23)c1` [Example 84, 3-(3-chloro-8-phenyl-1-(pyridin-2-ylmethylamino)isoquinolin-4-yl)benzenesulfonamide], the inhibition at 0.3 µM was determined as 98.4%.

With `NC(=O)Nc1cncc(-c2c(Cl)nc(NCc3ccccn3)c3c(-c4ccccc4)cccc23)c1` [Example 48, 1-(5-(3-chloro-8-phenyl-1-(pyridin-2-ylmethylamino)isoquinolin-4-yl)pyridin-3-yl)urea], the inhibition at 0.3 µM came to 98.6%.

For `C1=C(c2cnc(NCc3ccccc3)c3c(-c4ccccc4)cccc23)CCOC1` [Example 28, N-benzyl-4-(3,6-dihydro-2H-pyran-4-yl)-8-phenylisoquinolin-1-amine], the inhibition at 0.3 µM was 76.1%.

For `Cc1c(-c2cncc(S(N)(=O)=O)c2)nc(NCc2ccccn2)c2c(-c3ccccc3)cccc12` [Example 8, 5-(4-Methyl-8-phenyl-1-(pyridin-2-ylmethylamino)isoquinolin-3-yl)pyridine-3-sulfonamide], the inhibition at 0.3 µM is 61.4%.

As for `N#Cc1ccc(-c2c(Cl)nc(NCc3ccccn3)c3c(-c4ccccc4)cccc23)cc1` [Example 56, 4-(3-chloro-8-phenyl-1-(pyridin-2-ylmethylamino)isoquinolin-4-yl)benzonitrile], the inhibition at 0.3 µM came out at 89.7%.

As for `NC(=O)c1nc(NCc2ccccc2)c2c(-c3ccccc3)cccc2c1-c1cncc(S(N)(=O)=O)c1` [Example 17, 1-(Benzylamino)-8-phenyl-4-(5-sulfamoylpyridin-3-yl)isoquinoline-3-carboxamide], the inhibition at 0.3 µM was 93.5%.

Take `CS(=O)(=O)Nc1cccc(-c2cc3cccc(-c4ccccc4)c3c(NCc3ccccn3)n2)c1` [Example 35, N-(3-(8-phenyl-1-(pyridin-2-ylmethylamino)isoquinolin-3-yl)phenyl)methanesulfonamide]: the inhibition at 0.3 µM amounted to 36.2%.

On to `CC(=O)Nc1ccc(-c2cc3cccc(-c4ccccc4)c3c(NCc3ccccn3)n2)cc1` [Example 31, N-(4-(8-phenyl-1-(pyridin-2-ylmethylamino)isoquinolin-3-yl)phenyl)acetamide], for which the inhibition at 0.3 µM was 15.2%.

Take `Cc1nc(NCc2ccccc2)c2c(-c3ccccc3)cccc2c1-c1cncc(S(N)(=O)=O)c1` [Example 14, 5-(1-(Benzylamino)-3-methyl-8-phenylisoquinolin-4-yl)pyridine-3-sulfonamide]: the inhibition at 0.3 µM came to 93.2%.

Regarding `COc1cc(-c2c(Cl)nc(NCc3ccccn3)c3c(-c4ccccc4)cccc23)ccn1` [Example 62, 3-chloro-4-(2-methoxypyridin-4-yl)-8-phenyl-N-(pyridin-2-ylmethyl)isoquinolin-1-amine], the inhibition at 0.3 µM was 95.6%.

For `NS(=O)(=O)c1cncc(-c2cc3cccc(-c4ccccc4)c3c(N[C@H]3CCC[C@@H]3OCc3ccccc3)n2)c1` [Example 73, 5-(1-((1S,2S)-2-(benzyloxy)cyclopentylamino)-8-phenylisoquinolin-3-yl)pyridine-3-sulfonamide], the inhibition at 0.3 µM turned out to be 56.3%.

As for `N#Cc1cccc(-c2cc3cccc(-c4ccccc4)c3c(NCc3ccccn3)n2)c1` [Example 39, 3-(8-phenyl-1-(pyridin-2-ylmethylamino)isoquinolin-3-yl)benzonitrile], the inhibition at 0.3 µM turned out to be 66.8%.

On to `NS(=O)(=O)c1cccc(-c2cc3cccc(-c4ccccc4)c3c(NCc3ccccn3)n2)c1` [Example 36, 3-(8-phenyl-1-(pyridin-2-ylmethylamino)isoquinolin-3-yl)benzenesulfonamide], for which the inhibition at 0.3 µM came to 94.6%.

In the case of `CS(=O)(=O)Nc1ccc(-c2c(Cl)nc(NCc3ccccn3)c3c(-c4ccccc4)cccc23)cc1` [Example 69, N-(4-(3-chloro-8-phenyl-1-(pyridin-2-ylmethylamino)isoquinolin-4-yl)phenyl)methanesulfonamide], the inhibition at 0.3 µM worked out at 98.4%.

As for `N#Cc1cccc(-c2c(Cl)nc(NCc3ccccn3)c3c(-c4ccccc4)cccc23)c1` [Example 61, 3-(3-chloro-8-phenyl-1-(pyridin-2-ylmethylamino)isoquinolin-4-yl)benzonitrile], the inhibition at 0.3 µM turned out to be 95.1%.

Consider `CC(C)CCNc1nc(-c2cncc(S(N)(=O)=O)c2)cc2cccc(-c3ccccc3)c12` [Example 25, 5-(1-(isopentylamino)-8-phenylisoquinolin-3-yl)pyridine-3-sulfonamide], for which the inhibition at 0.3 µM turned out to be 53.2%.

`CC(Nc1nc(Cl)c(-c2cccc(S(N)(=O)=O)c2)c2cccc(-c3ccccc3)c12)c1ccccc1` (stereo not shown) [Example 79, 3-(3-chloro-8-phenyl-1-(1-phenylethylamino)isoquinolin-4-yl)benzenesulfonamide]: the inhibition at 0.3 µM turned out to be 67.5%.

Take `NC(=O)c1cccc(-c2cc3cccc(-c4ccccc4)c3c(NCc3ccccn3)n2)c1` [Example 41, 3-(8-phenyl-1-(pyridin-2-ylmethylamino)isoquinolin-3-yl)benzamide]: the inhibition at 0.3 µM worked out at 54.1%.

Take `NS(=O)(=O)c1ccccc1-c1cc2cccc(-c3ccccc3)c2c(NCc2ccccn2)n1` [Example 65, 2-(8-phenyl-1-(pyridin-2-ylmethylamino)isoquinolin-3-yl)benzenesulfonamide]: the inhibition at 0.3 µM stood at 50.5%.

Take `NC(=O)c1ccc(-c2cc3cccc(-c4ccccc4)c3c(NCc3ccccn3)n2)cc1` [Example 42, 4-(8-phenyl-1-(pyridin-2-ylmethylamino)isoquinolin-3-yl)benzamide]: the inhibition at 0.3 µM came to 60.3%.

For `CC(=O)Nc1cncc(-c2c(Cl)nc(NCc3ccccn3)c3c(-c4ccccc4)cccc23)c1` [Example 46, N-(5-(3-chloro-8-phenyl-1-(pyridin-2-ylmethylamino)isoquinolin-4-yl)pyridin-3-yl)acetamide], the inhibition at 0.3 µM came to 98.4%.

Regarding `Nc1ccc(-c2c(Cl)nc(NCc3ccccn3)c3c(-c4ccccc4)cccc23)cn1` [Example 77, 4-(6-aminopyridin-3-yl)-3-chloro-8-phenyl-N-(pyridin-2-ylmethyl)isoquinolin-1-amine], the inhibition at 0.3 µM stood at 99%.

Consider `Nc1ccc(-c2cc3cccc(-c4ccccc4)c3c(NCc3ccccn3)n2)cn1` [Example 58, 3-(6-aminopyridin-3-yl)-8-phenyl-N-(pyridin-2-ylmethyl)isoquinolin-1-amine], for which the inhibition at 0.3 µM worked out at 22.8%.

Consider `NS(=O)(=O)Nc1ccccc1-c1cc2cccc(-c3ccccc3)c2c(NCc2ccccn2)n1` [Example 51], for which the inhibition at 0.3 µM worked out at 86.3%.

Take `c1ccc(CNc2ncc(-c3cncc(-c4nn[nH]n4)c3)c3cccc(-c4ccccc4)c23)cc1` [Example 19, 4-(5-(2H-Tetrazol-5-yl)pyridin-3-yl)-N-benzyl-8-phenylisoquinolin-1-amine]: the inhibition at 0.3 µM was 90%.

Regarding `NS(=O)(=O)c1cncc(-c2cc3cccc(-c4ccccc4)c3c(NCc3csc(-c4ccccc4)n3)n2)c1` [Example 72, 5-(8-phenyl-1-((2-phenylthiazol-4-yl)methylamino)isoquinolin-3-yl)pyridine-3-sulfonamide], the inhibition at 0.3 µM amounted to 16.1%.

For the compound `NS(=O)(=O)c1cccc(-c2c(Cl)nc(NCc3ccccc3)c3c(-c4ccccc4)cccc23)c1` [Example 78, 3-(1-(benzylamino)-3-chloro-8-phenylisoquinolin-4-yl)benzenesulfonamide], the inhibition at 0.3 µM was 91%.

Turning to `NS(=O)(=O)c1cccc(-c2cnc(NCc3ccccn3)c3c(-c4ccccc4)cccc23)c1` [Example 85, 3-(8-phenyl-1-(pyridin-2-ylmethylamino)isoquinolin-4-yl)benzenesulfonamide], the inhibition at 0.3 µM was determined as 99%.

Turning to `CC(=O)Nc1ccccc1-c1cc2cccc(-c3ccccc3)c2c(NCc2ccccn2)n1` [Example 30, N-(2-(8-phenyl-1-(pyridin-2-ylmethylamino)isoquinolin-3-yl)phenyl)acetamide], the inhibition at 0.3 µM was 51.3%.

Take `Clc1nc(NCc2ccccc2)c2c(-c3ccccc3)cccc2c1C1=CCOCC1` [Example 83, N-benzyl-3-chloro-4-(3,6-dihydro-2H-pyran-4-yl)-8-phenylisoquinolin-1-amine]: the inhibition at 0.3 µM amounted to 19.3%.

Regarding `CS(=O)(=O)N(c1cncc(-c2cc3cccc(-c4ccccc4)c3c(NCc3ccccn3)n2)c1)S(C)(=O)=O` [Example 32, N-(methylsulfonyl)-N-(5-(8-phenyl-1-(pyridin-2-ylmethylamino)isoquinolin-3-yl)pyridin-3-yl)methanesulfonamide], the inhibition at 0.3 µM was 70.7%.
